Experimental data from US7888319B2, “Compositions and methods for promoting wound healing and tissue regeneration” (MUSC Foundation for Research Development, priority 2004, dated 2011).

System: WB-F344 cells
Assay: Scratch injury of WB-F344 cell lines stably expressing ACT-peptide-encoding polynucleotide
Assay type: cell-based, rat
Details: stable expression with GFP, 24 hours after scratch, vs GFP-only cell line
Text: WB-F344 cells are a transformed rat epithelial cell line derived by treatment of isolated rat liver cells with a cancer-causing agent (Tsao et al., 1984; Hayashi et al., 1997; Hayashi et al., 1998; Hayashi et al., 2001). WB-F344 cells were transfected with a cDNA expression plasmid construct and selected under antibiotic using standard protocols to generate cell lines that stably expressed an ACT-peptide-encoding-polynucleotide (SEQ ID NO:6) operably linked to a promoter sequence or a green fluorescent protein (GFP) polynucleotide operably linked to a promoter sequence as a control. The polynucleotide encoding the ACT peptide also encoded GFP. As such, expression of the ACT peptide could be assayed by standard GFP fluorescence optics on a light microscope. (a) and (b) show high magnification images of GFP fluorescence in WB-F344 cell lines expressing GFP plus the carboxy terminus ACT peptide sequence (a) or GFP alone (b). Near confluent monolayers of the WB-F344 cell lines were “scratch injured” and allowed to “heal” for 24 hours. […]
WB-F344 cells are a transformed rat epithelial cell line derived by treatment of isolated rat liver cells with a cancer-causing agent (Tsao et al., 1984; Hayashi et al., 1997; Hayashi et al., 1998; Hayashi et al., 2001). […] As such, expression of the ACT peptide could be assayed by standard GFP fluorescence optics on a light microscope. […]

aga cct cgg cct gat gac ctg gag att (DNA AGACCTCGGCCTGATGACCTGGAGATT; expressed or natural sequence) [ACT-peptide-encoding-polynucleotide, polynucleotide encoding ACT peptide plus GFP, operably linked to a promoter, stably expressed in WB-F344 cells]
repopulation of the scratch injury: inhibited repopulation of the scratch injury
